Experimental data from ChEMBL document CHEMBL4033658, “Design and expeditious synthesis of organosilanes as potent antivirals targeting multidrug-resistant influenza A viruses” (Eur J Med Chem, 2017).

Tested on: Influenza A virus
Assay: Inhibition of Influenza A virus AM2-S31N mutant proton channel expressed in Xenopus laevis frog oocytes at 100 uM after 2 mins by electrophysiological two-electrode voltage clamp assay
Type: cell-based

Compound	inhibition
C[Si](C)(c1ccccc1)c1ccc(CNC23CC4CC(CC(O)(C4)C2)C3)cc1	84.9%
CC(C)(C)c1ccc(CNC23CC4CC(CC(O)(C4)C2)C3)cc1	75.4%
CC(C)[Si](c1ccc(CNC23CC4CC(CC(O)(C4)C2)C3)cc1)(C(C)C)C(C)C	33.6%
C[Si](C)(C)c1ccc(CNC23CC4CC(CC(O)(C4)C2)C3)cc1	86.7%
CC(C)(C)c1ccc(CNC23CC4CC(CC(C4)C2)C3)cc1	72.6%
C[Si](C)(C)c1ccc(CNC23CC4CC(CC(C4)C2)C3)cc1	77.5%
C[Si](C)(C)c1ccc(CNC23CC4CC(CC(C4)C2)C3)nc1	81.3%
